The text below walks through data of patent publication US20180071280A1, “MODULATORS OF CELL DEATH PROCESSES” (URIFER LTD., priority 2015, published 2018).

Assay [1] deals with DAPK1 (Death-associated protein kinase 1) (Homo sapiens, UniProt P53355). Description: Kinase panel assay, DAPK1. To be noted: above threshold. It is filed as biochemical. The method, then: Kinase panel assays were performed using the FRET-based Z′-LYTE, Lantha Screen and Adapta enzymatic kinase assay systems (Life Technologies, Carlsbad, Calif.), which were carried out using the SelectScreen Kinase Profiling Service (Life Technologies). The standard reaction contained 2 μM peptide substrate, ATP at the optimal assay concentration, 50 mM HEPES (pH 7.5), 0.01% Brij-35, 10 mM MgCl2, 1 mM EGTA, and the tested kinase. Each kinase was checked for its activity in duplicate data points (n=2) and was assayed following the detailed procedures outlined in the SelectScreen service. Percent inhibition or ATP displacement (For Lantha screen) represent a ratio of phosphorylated/ATP bound product formed in the presence of the compound compared with phosphorylated/ATP bound product formed in reactions containing 1% DMSO.
Chain of DAPK1 (Death-associated protein kinase 1) (P53355 whole entry): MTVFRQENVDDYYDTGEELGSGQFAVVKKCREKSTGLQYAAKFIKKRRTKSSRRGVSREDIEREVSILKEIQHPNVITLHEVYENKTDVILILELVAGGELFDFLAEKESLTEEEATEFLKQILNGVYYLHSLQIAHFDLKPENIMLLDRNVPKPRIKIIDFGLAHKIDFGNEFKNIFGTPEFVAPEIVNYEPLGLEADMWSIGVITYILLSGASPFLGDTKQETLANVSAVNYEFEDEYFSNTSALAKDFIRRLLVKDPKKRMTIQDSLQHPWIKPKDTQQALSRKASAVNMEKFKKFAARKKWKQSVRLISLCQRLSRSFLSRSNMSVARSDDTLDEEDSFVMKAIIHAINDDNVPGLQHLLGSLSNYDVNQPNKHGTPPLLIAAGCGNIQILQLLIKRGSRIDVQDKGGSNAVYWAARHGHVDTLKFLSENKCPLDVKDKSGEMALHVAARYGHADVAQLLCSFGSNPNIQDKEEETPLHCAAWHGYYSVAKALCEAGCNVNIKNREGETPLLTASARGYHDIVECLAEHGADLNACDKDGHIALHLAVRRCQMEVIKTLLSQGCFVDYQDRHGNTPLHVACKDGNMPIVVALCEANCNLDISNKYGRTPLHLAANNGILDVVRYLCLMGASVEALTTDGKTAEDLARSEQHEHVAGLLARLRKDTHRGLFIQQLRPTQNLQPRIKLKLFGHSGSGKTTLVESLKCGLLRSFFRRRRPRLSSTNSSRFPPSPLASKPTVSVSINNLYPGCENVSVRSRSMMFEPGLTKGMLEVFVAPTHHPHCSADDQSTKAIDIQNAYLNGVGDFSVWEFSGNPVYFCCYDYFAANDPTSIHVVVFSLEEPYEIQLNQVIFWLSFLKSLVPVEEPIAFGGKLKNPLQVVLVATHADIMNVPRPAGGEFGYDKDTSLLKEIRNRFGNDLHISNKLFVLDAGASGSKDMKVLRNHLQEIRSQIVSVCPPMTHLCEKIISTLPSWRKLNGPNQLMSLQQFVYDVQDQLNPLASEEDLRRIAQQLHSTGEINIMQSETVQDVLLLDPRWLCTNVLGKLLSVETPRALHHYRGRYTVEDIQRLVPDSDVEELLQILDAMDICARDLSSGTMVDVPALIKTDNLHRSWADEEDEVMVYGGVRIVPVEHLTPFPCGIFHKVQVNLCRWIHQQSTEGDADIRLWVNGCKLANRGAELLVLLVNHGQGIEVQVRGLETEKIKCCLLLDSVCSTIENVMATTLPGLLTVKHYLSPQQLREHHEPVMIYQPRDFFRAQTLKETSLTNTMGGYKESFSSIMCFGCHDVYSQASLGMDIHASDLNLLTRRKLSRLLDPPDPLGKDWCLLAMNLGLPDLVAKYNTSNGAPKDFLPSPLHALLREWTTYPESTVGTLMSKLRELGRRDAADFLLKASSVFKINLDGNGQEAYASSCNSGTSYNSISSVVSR
Kinome technique was used for monitoring phosphorylation events and phosphorylation targets of 0260-Fer interaction, using peptide arrays for human targets and phosphorylation-specific antibodies. Construction of peptide arrays relied on information from phosphorylation databases. The following proteins were determined as significant above the threshold of 40% kinase activity inhibition or ATP displacement to the Kinase domain site.

The test system of the next assay is CC cells. Briefly: Autophagy in CC cells (TEM, LC3 immuno-staining, WB). Type of assay: cell-based, human. The method, then: WB analyses were carried out as previously described before. In brief, cells were lysed in RIPA buffer mixed with protease inhibitors and separated on SDS-PAGE gel, transferred to PVDF membrane treated with 5% skim milk to exclude non-specific background and incubated with a primary antibody over-night. The membrane was incubated for 1 h with a secondary antibody conjugated to Horseradish Peroxidase (HRP). The protein-antibody complex was visualized using the SuperSignal West Pico Chemiluminescent Substrate (Thermo scientific, USA).
(§1) Cells were fixed with 4% paraformaldehyde (30 min) and incubated with Permeabilization Solution containing 0.1% Triton X-100 (Sigma-Aldrich, Israel) in PBS at room temperature for 1 h. Nonspecific binding was blocked with PBS containing 10% fetal bovine serum for 1 h at room temperature. Cells were incubated with specific antibodies diluted 1:100 overnight at 4° C. Cells were washed (5 min) in PBS containing 0.2% Tween-20 (Sigma-Aldrich, Israel) to remove non-specific binding. Bound primary antibodies were detected by Alexa Fluor® 488 goat anti-mouse IgG antibody or Alexa Fluor® 594 goat anti-rabbit IgG antibody (Molecular Probes, Invitrogen, U.K.). Nuclei were visualized by incubation with Hoechst 33342 solution for 10 min (1:500). Nonspecific staining, as determined by binding to the secondary antibody only, was negligible. The immunostained slides were examined under the fluorescence microscope AxioimagerZ1 (Zeiss, Germany) or confocal fluorescence microscope (Olympus-FV1000).
Cells were grown in MEM or DMEM, washed twice with PBS and fixed for 5 minutes in Karnovsky fixative (2.5% glutaraldehyde, 2.5% paraformaldehyde in cacodylate buffer pH 7.4) on the tissue culture plate. Cells were then harvested, and transferred to 1.5 ml tube for further 1 h fixation at room temperature. The cells were then stored O.N at 4C° after which the samples were washed in 0.1 M cacodylate buffer and post-fixed with 1% OsO4 in 0.1 M sodium cacodylate buffer (Sigma-Aldrich, Israel) for 1 h. […]

Another assay relates to SW620 CC cells. Briefly: MultiTox-Fluor cytotoxicity assay in SW620 CC cells. Type of assay: cell-based, human. The following applies: for cell death: 2 μM; for EC50: Homo sapiens, SW-620, read-out: EC50 (cell death). The method, then:
Cell lines (HCT116, ht29, Rko, Hep3B, SW48, SW620, MDA-MB-231, PANC-1, su.86.86, Hfb) were obtained from the American Type Culture Collection (ATCC). Cell type authentication was carried out by microscope and DNA profiles using short tandem repeat analysis. Cells were grown in Minimum Essential Medium (MEM) containing 10% heat-inactivated Fetal Bovine Serum (FBS) or in Dulbecco's Modified Eagle's Medium (DMEM) containing 10% FBS, where specified, at 37° C. with 5% CO2. In general, the in-vitro experiments were carried out with 2. μM 0260 added into the growth medium. Dose response experiments included increasing 0260 concentrations. Cell death levels were determined using the MultiTox-Fluor Multiplex Cytotoxicity Assay (G9201, Promega, USA). In brief, 10,000 cells were seeded in black bottom 96 wells plate and were allowed to attach to the plate bottom for 16 h before the administration of various 0260 concentration in each well. Cell death levels were determined according to the manufacturer's protocol.
Cells death level was determined using the MultiTox-Fluor Multiplex Cytotoxicity Assay (G9201, Promega, USA) according to the manufacturer's protocol.

For the next assay, the system named is MDA cells. Briefly: Autophagy in MDA cells (LC3 immuno-staining). Type of assay: cell-based, human. The following applies: 2 μM. The method, then:
as §1

In the next assay the test system is SW620 CC xenografts. Description: SW620 CC xenografts in nude mice. It is filed as in vivo. The method, then:
All animal experiments were performed according to the guidelines of the Institutional Animal Care and Use Committee of the Bar-Ilan University. Nude mice (Harlan, Israel) were transferred from ad libitum diet to a more strict diet 2 days before inoculation to lower blood glucose levels, and housed one per cage to ensure an even consumption of food. The diet was comprised of 3 g/mouse/day of standard chow, given at the same time every day. The food was consumed within an average time of 2 hours, consequently the mice were kept without food for the next 22 hours until the daily ration. The mice were kept on this diet throughout the experiment. Mice were inoculated with 1.5×10^6 SW620 CC cells and divided randomly into respective experimental groups. In brief, cells were harvested, counted under the microscope, concentrated by centrifugation (5 min at 500G) and re-suspended in Hank's balanced salt solution (Biological Industries, Israel). Before inoculation the cell suspension was mixed with Martial (BD biosciences, USA) in 1:1 ratio. Four days post-inoculation mice were randomized and placed in cages (n=4 per cage). […]
Mice were sacrificed at day 22 of the xenograft experiments, as described above. […] The serum was analyzed immediately using the Cobas 6000-501 chemistry analyzer (Roche Diagnostics, USA) according to the manufacturer's protocols for each assay.

Structures can show the parent of a compound that is named as a salt. Where two headings read alike, the source gives them in different places.

One may read the EC50 as the concentration at which the effect is half-maximal.

As to `CC(C)c1ccc(-c2cn3nc(N4CCC(CN5CCN(C)CC5)CC4)sc3n2)cc1` [compound 0260, tartarate salt of 6-(4-isopropyl-phenyl)-2-{4-[(4-methyl-piperazin-1-yl)methyl]piperidin-1-yl}-imidazo [2,1-b][1,3,4]thiadiazole], the “kinase activity inhibition or ATP displacement” value in assay [1] is given as more than 40%. The autophagy / autophagosomes entry with CC cells (TEM and LC3 immuno-staining) was “autophagy was induced and autophagosomes accumulated”. The “level of LC3II” value with CC cells (WB) is listed as “relative increase”. Further, the cell death in the assay with SW620 CC cells (24 h, metastatic CC (SW620), 1 gr/l glucose) was 100%; with SW620 CC cells (72 h, high glucose concentration), 100%. In addition, the 50% effective concentration (EC50) with SW620 CC cells (SW620, 4.5 gr/1 glucose (DMEM)) stood at 5100 nM; with SW620 CC cells (SW620, 24 h, micellar formulation, 1 gr/l glucose (MEM)) it was 400 nM; in the assay with SW620 CC cells (SW620, 48 h, micellar formulation) it was 300 nM. Further, the “death at the highest dose” value in the assay with SW620 CC cells (SW620, 4.5 gr/1 glucose (DMEM)) turned out to be 50%. Further, in the assay on MDA cells, the “autophagy (LC3 immuno-staining)” value is “induction of autophagy was also observed”. Also, the tumor histopathology entry in the assay with SW620 CC xenografts (SW620 derived tumors dissected at day 22, center and periphery) is “comprised mostly of dead necrotic and un-vascularized tissue”. In addition, in the assay on SW620 CC xenografts (after 22 days of treatment, IP twice a day, restricted diet), the “decrease in average tumor volume” value is listed as 10 fold.
